From patent publication US20250154686A1, “COMPOUND LIBRARY” (CHUGAI SEIYAKU KABUSHIKI KAISHA, priority 2021, published 2025)

Target: T1, Bcl-2 protein (Recombinant Human Bcl-2 Protein) (Homo sapiens, UniProt P10415)
T1 construct: purchased Novus Biologicals NBP2-34889
Assay: AS-MS evaluation of binding of the Example 4 mixture library (1200 compounds/well) to Bcl-2, ASMS ratio (%)
Details: mixture library, value belongs to the MS peak assigned to the compound; for ASMS ratio (%) n = 1: replicate n = 1; for ASMS ratio (%) n = 2: replicate n = 2
Outline: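 A pooled 1200-compound mixture (20 nM each final) was incubated with 20 μM recombinant human Bcl-2 in pH 7.4 Tris-HCl buffer with NaCl, Tween-20 and DTT for 1 h at 23° C. in the dark. Bound ligands were separated by spin-column SEC and measured by reverse-phase LC/MS; ASMS ratio (%) was calculated against protein-free unfiltered standard and protein-free SEC blank.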

T1 sequence (P10415 whole entry): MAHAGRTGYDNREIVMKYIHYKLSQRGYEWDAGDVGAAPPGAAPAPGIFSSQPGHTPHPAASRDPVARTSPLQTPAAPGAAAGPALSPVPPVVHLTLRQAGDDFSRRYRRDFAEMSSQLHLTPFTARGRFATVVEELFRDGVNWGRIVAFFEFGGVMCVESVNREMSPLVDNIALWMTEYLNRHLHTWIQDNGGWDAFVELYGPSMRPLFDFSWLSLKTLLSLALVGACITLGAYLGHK

Compound | ASMS ratio (%) n = 1 [%] | ASMS ratio (%) n = 2 [%]
CCOc1cncc(-c2cc(CN3CCN(c4ccc(C(=O)NS(C)(=O)=O)nn4)CC3)cc(OC(F)(F)F)c2)c1 [Compound B2I090-01, 6-[4-[[3-(5-Ethoxypyridin-3-yl)-5-(trifluoromethoxy)phenyl]methyl]piperazin-1-yl]-N-methylsulfonylpyridazine-3-carboxamide] | 0.0 | 0.0
CCOc1cncc(-c2ccc(CN3CCN(c4ccc(C(=O)NS(C)(=O)=O)nn4)CC3)c3ccccc23)c1 [Compound B2I092-01, 6-[4-[[4-(5-Ethoxypyridin-3-yl)naphthalen-1-yl]methyl]piperazin-1-yl]-N-methylsulfonylpyridazine-3-carboxamide] | 2.6 | 0.3
CCOc1cncc(-c2csc(CN3CCN(c4ccc(C(=O)NS(C)(=O)=O)nn4)CC3)c2)c1 [Compound B2I094-01, 6-[4-[[4-(5-Ethoxypyridin-3-yl)thiophen-2-yl]methyl]piperazin-1-yl]-N-methylsulfonylpyridazine-3-carboxamide] | 0.0 | 0.0
CCOc1cccc(C#Cc2ccccc2CN2CCN(c3ccc(C(=O)NS(C)(=O)=O)nn3)CC2)c1 [Compound B2I095-01, 6-[4-[[2-[2-(3-Ethoxyphenyl)ethynyl]phenyl]methyl]piperazin-1-yl]-N-methylsulfonylpyridazine-3-carboxamide] | 0.0 | 0.0
CCOc1cncc(C#Cc2ccccc2CN2CCN(c3ccc(C(=O)NS(C)(=O)=O)nn3)CC2)c1 [Compound B2I096-01, 6-[4-[[2-[2-(5-Ethoxypyridin-3-yl)ethynyl]phenyl]methyl]piperazin-1-yl]-N-methylsulfonylpyridazine-3-carboxamide] | 0.0 | 0.0
CCOc1cccc(-c2ccc(C(C)N3CCN(c4ccc(C(=O)NS(C)(=O)=O)cc4)CC3)cc2)c1 (stereo not shown) [Compound B2I097-01, 4-[4-[1-[4-(3-Ethoxyphenyl)phenyl]ethyl]piperazin-1-yl]-N-methylsulfonylbenzamide] | 0.8 | 1.4
CCOc1cncc(-c2ccc(C(C)N3CCN(c4ccc(C(=O)NS(C)(=O)=O)cc4)CC3)cc2)c1 (stereo not shown) [Compound B2I098-01, 4-[4-[1-[4-(5-Ethoxypyridin-3-yl)phenyl]ethyl]piperazin-1-yl]-N-methylsulfonylbenzamide] | 0.0 | 0.0
CCOc1cccc(-c2ccc(C(C)N3CCN(c4ccc(C(=O)NS(C)(=O)=O)cc4)CC3)c(F)c2)c1 (stereo not shown) [Compound B2I099-01, 4-[4-[1-[4-(3-Ethoxyphenyl)-2-fluorophenyl]ethyl]piperazin-1-yl]-N-methylsulfonylbenzamide] | – | 0.0
CCOc1cccc(-c2csc(C(=O)N3CCN(c4ccc(C(=O)NS(=O)(=O)C(C)(C)C)nn4)CC3)c2)c1 [Compound B2L001-01] | −67.5 | 0.0
CCOc1cncc(-c2csc(C(=O)N3CCN(c4ccc(C(=O)NS(=O)(=O)C(C)(C)C)nn4)CC3)c2)c1 [Compound B2L002-01, N-tert-Butylsulfonyl-6-[4-[4-(5-ethoxypyridin-3-yl)thiophene-2-carbonyl]piperazin-1-yl]pyridazine-3-carboxamide] | 0.0 | 0.0
CCOc1cccc(-c2ccc(C(=O)N3CCN(c4ccc(C(=O)NS(=O)(=O)C(C)(C)C)nn4)CC3)cc2C)c1 [Compound B2L003-01] | 0.0 | 0.0
CCOc1cncc(-c2ccc(C(=O)N3CCN(c4ccc(C(=O)NS(=O)(=O)C(C)(C)C)nn4)CC3)cc2C)c1 [Compound B2L004-01] | 5.5 | 9.3
CCOc1cccc(-c2ccc(C(=O)N3CCN(c4ccc(C(=O)NS(=O)(=O)C(C)(C)C)nn4)CC3)cc2F)c1 [Compound B2L005-01] | 0.0 | 0.0
CCOc1cncc(-c2ccc(C(=O)N3CCN(c4ccc(C(=O)NS(=O)(=O)C(C)(C)C)nn4)CC3)cc2F)c1 [Compound B2L006-01] | 0.0 | 0.0
CCOc1cccc(C#Cc2ccccc2C(=O)N2CCN(c3ccc(C(=O)NS(=O)(=O)C(C)(C)C)nn3)CC2)c1 [Compound B2L007-01] | 0.0 | −1.0
CCOc1cncc(C#Cc2ccccc2C(=O)N2CCN(c3ccc(C(=O)NS(=O)(=O)C(C)(C)C)nn3)CC2)c1 [Compound B2L008-01] | 0.0 | 0.0
CCOc1cccc(C#Cc2cncc(C(=O)N3CCN(c4ccc(C(=O)NS(=O)(=O)C(C)(C)C)nn4)CC3)c2)c1 [Compound B2L009-01, N-tert-Butylsulfonyl-6-[4-[5-[2-(3-ethoxyphenyl)ethynyl]pyridine-3-carbonyl]piperazin-1-yl]pyridazine-3-carboxamide] | 0.0 | 0.0
CCOc1cncc(C#Cc2cncc(C(=O)N3CCN(c4ccc(C(=O)NS(=O)(=O)C(C)(C)C)nn4)CC3)c2)c1 [Compound B2L010-01] | 0.0 | 0.0
CCOc1cccc(-c2ccccc2CCC(=O)N2CCN(c3ccc(C(=O)NS(=O)(=O)C(C)(C)C)nn3)CC2)c1 [Compound B2L011-01] | 0.0 | 0.0
CCOc1cncc(-c2ccccc2CCC(=O)N2CCN(c3ccc(C(=O)NS(=O)(=O)C(C)(C)C)nn3)CC2)c1 [Compound B2L012-01] | 4.3 | 7.3
CCOc1cccc(-c2ccc(C(=O)N3CCN(c4ccc(C(=O)NS(=O)(=O)C(C)(C)C)nn4)CC3)c3ccccc23)c1 [Compound B2L013-01] | 0.0 | 0.0
CCOc1cncc(-c2ccc(C(=O)N3CCN(c4ccc(C(=O)NS(=O)(=O)C(C)(C)C)nn4)CC3)c3ccccc23)c1 [Compound B2L014-01, N-tert-Butylsulfonyl-6-[4-[4-(5-ethoxypyridin-3-yl)naphthalene-1-carbonyl]piperazin-1-yl]pyridazine-3-carboxamide] | 0.3 | 0.5
CCOc1cccc(-c2cc(C(=O)N3CCN(c4ccc(C(=O)NS(=O)(=O)C(C)(C)C)nn4)CC3)cc(C(C)(C)C)c2)c1 [Compound B2L015-01, 6-[4-[3-tert-Butyl-5-(3-ethoxyphenyl)benzoyl]piperazin-1-yl]-N-tert-butylsulfonylpyridazine-3-carboxamide] | 0.0 | 0.0
CCOc1cncc(-c2cc(C(=O)N3CCN(c4ccc(C(=O)NS(=O)(=O)C(C)(C)C)nn4)CC3)cc(C(C)(C)C)c2)c1 [Compound B2L016-01, 6-[4-[3-tert-Butyl-5-(5-ethoxypyridin-3-yl)benzoyl]piperazin-1-yl]-N-tert-butylsulfonylpyridazine-3-carboxamide] | 0.0 | −5.4
CCOc1cccc(-c2cc(C(=O)N3CCN(c4ccc(C(=O)NS(=O)(=O)C(C)(C)C)nn4)CC3)cc(C(F)(F)F)c2)c1 [Compound B2L017-01, N-tert-Butylsulfonyl-6-[4-[3-(3-ethoxyphenyl)-5-(trifluoromethyl)benzoyl]piperazin-1-yl]pyridazine-3-carboxamide] | 0.0 | 0.0
CCOc1cncc(-c2cc(C(=O)N3CCN(c4ccc(C(=O)NS(=O)(=O)C(C)(C)C)nn4)CC3)cc(C(F)(F)F)c2)c1 [Compound B2L018-01, N-tert-Butylsulfonyl-6-[4-[3-(5-ethoxypyridin-3-yl)-5-(trifluoromethyl)benzoyl]piperazin-1-yl]pyridazine-3-carboxamide] | −1.9 | −2.5
CCOc1cncc(C#Cc2cc(C(=O)N3CCN(c4ccc(C(=O)NS(=O)(=O)C(C)(C)C)nn4)CC3)cc(C(F)(F)F)c2)c1 [Compound B2L020-01, N-tert-Butylsulfonyl-6-[4-[3-[2-(5-ethoxypyridin-3-yl)ethynyl]-5-(trifluoromethyl)benzoyl]piperazin-1-yl]pyridazine-3-carboxamide] | 0.0 | 0.0
CCOc1cccc(-c2cnn(-c3cc(C(=O)N4CCN(c5ccc(C(=O)NS(=O)(=O)C(C)(C)C)nn5)CC4)cc(C(F)(F)F)c3)c2)c1 [Compound B2L021-01, N-tert-Butylsulfonyl-6-[4-[3-[4-(3-ethoxyphenyl)pyrazol-1-yl]-5-(trifluoromethyl)benzoyl]piperazin-1-yl]pyridazine-3-carboxamide] | 0.0 | −14.9
